# Where two headings read alike, the source gives them in different places.
# Legend:
# [1] = system: DAS Soybean cell suspensions; experiment: Glufosinate selection of soybean suspension cells; assay type: cell-based
# Protocol: The DAS Soybean cell suspensions were cultured on a 3 d cycle with 10 ml of settled suspension volume transferred to 115 ml of fresh liquid medium. Settled cell volume was determined by allowing the cell suspension to settle for 2 min in the 125-mL flask after vigorous swirling and then drawing cells from the bottom of the flask with a wide bore 10 ml pipette. The flasks were then transferred to orbital shakers at 140 rpm.
# Aliquots of 4 ml of the suspension cells at 0.72 OD^600 was transferred along with 200 μM acetosyringone (AS) onto a 100×25 sterile Petri plate. EHA105 Agrobacterium suspension at a density of 1.2 OD^650 in a 100 μL volume was added and mixed well. The Agrobacterium and suspension cell mixture was swirled well and the plate was transferred to dark growth chamber where the temperature was maintained at 25° C.
# 13.2.1—Selection of soybean suspension cells and isolation of transformed colonies. After 4 days of co-cultivation the plate was swirled again to mix the suspension well and a 1.5 ml aliquot was transferred to the selection medium and spread on the gel medium on a 100×15 ml Petri-plate. […] After a 10 min drying in the hood the plates were incubated for 4 weeks in dark at 28° C. Colonies appeared in selection and a total of 11 colonies were transferred to fresh medium from 3 different experiments and maintained for 3-4 months. […]
# [2] = system: Non-transformed Hi-II callused suspension tissue; experiment: Dose response of non-transformed maize callus tissue; assay type: cell-based
# AAD1 (v1) = biological target: T1, AAD1 (v1) (Sphingobium herbicidovorans, UniProt Q8KSC8); experiment: HPLC analysis of herbicide degradation by AAD1 (v1) cell extract; assay type: biochemical; conditions: AAD1 (v1) cell extract, same conditions as 2,4-D
# T1 construct: made in house; host or cells: E. coli BL-21 Star (DE3), plasmid pDAB3203
# T1 sequence (Q8KSC8 whole entry): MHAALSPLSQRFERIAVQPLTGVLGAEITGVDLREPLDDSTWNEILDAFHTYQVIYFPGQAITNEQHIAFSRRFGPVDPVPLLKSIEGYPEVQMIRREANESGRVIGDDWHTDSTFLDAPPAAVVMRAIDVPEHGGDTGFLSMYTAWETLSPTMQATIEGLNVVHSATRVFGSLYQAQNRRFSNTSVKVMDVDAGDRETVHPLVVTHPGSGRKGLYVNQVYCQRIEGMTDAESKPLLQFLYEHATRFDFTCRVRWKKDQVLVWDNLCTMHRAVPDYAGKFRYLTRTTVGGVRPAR
# [3] = system: Arabidopsis thaliana var. Columbia; experiment: Arabidopsis plate test bioassay for herbicide degradation; assay type: in vivo; conditions: for IC50: Arabidopsis thaliana, 168 h
# wt ARBTH = experiment: In vitro plate test of herbicide cross resistance: wild-type Arabidopsis; assay type: in vivo, Arabidopsis thaliana; conditions: 7 days
# Protocol: (§1) The ability of AAD1 (v3) to provide resistance to other aryloxyphenoxyalkanoate herbicides in transgenic Arabidopsis was determined using a modified in vitro plate assay. Seeds from wild-type Arabidopsis thaliana as well as Arabidopsis thaliana containing the plant optimized AAD1 (v3) gene (T4 homozygous plants id=PAAD1.315.064) were sterilized by agitating for 10 min in a 50% bleach solution. These seeds were then rinsed four times with sterile water to remove the bleach.
# (§2) Dose response assays utilized a nutrient media (see below) supplemented with various rates of test compounds. The test compounds were added to the heated media (55° C.) as concentrated solutions in DMSO. Control wells had the appropriate amount of DMSO without any additional compound. The final concentration of DMSO never exceeded 1% (v/v). After thorough mixing, a 6 mL aliquot of the warm media containing the appropriate concentration of compound was added to each well of a 6-well, flat bottom, polystyrene tissue culture tray (Falcon 353046, Becton Dickson and Company, Franklin Lakes, N.J.). After the media solidified, approximately 20 to 30 Arabidopsis seeds were applied on top of the solidified media and the remaining 2 mL of media was poured over the seeds. The plates were lightly agitated to disperse the seeds, covered and allowed to cool until the media had completely solidified. The plates were incubated for 7 days at 25° C. under continual fluorescent lighting (75 μE m^−2 s^−1). Nutrient Media Composition was as described in Example 2.2 and in Somerville and Orgen (1982).
# (§3) Assessment of Growth Reduction. The apical portion of the Arabidopsis plants grown in the treated media was assessed visually relative to the apical portion of the plants grown in the media containing only DMSO. Values were recorded as % growth reduction. Assessments of root growth inhibition of the Arabidopsis plants grown in the treated media were achieved by carefully extracting the plants from the media and measuring the length of the root. These root lengths were then compared to the root length of the control plants to determine a % growth reduction. A minimum of five plants were assessed for each treatment. The values recorded are an average of all the plants assessed. The calculated concentration to reach 50% inhibition effect (I50) were determined for both root and shoots of wildtype and AAD1-transformed Arabidopsis. The ratios of resistant to sensitive biotypes are included in Table 19. A ratio>2 for both root and shoot measurements generally signifies significant resistance. The higher the ratio, the greater the level of resistance. […] The broad phenoxy auxin resistance is the first reported in planta.
# PAAD1.315.064 ARBTH = experiment: In vitro plate test of herbicide cross resistance: homozygous T4 AAD1 (v3) Arabidopsis; assay type: in vivo, Arabidopsis thaliana
# Protocol: as §1, §2, §3
# [4] = system: T4 Arabidopsis homozygous for AAD1 (v3) (line AAD1.01.315.076); experiment: Foliar-applied auxinic herbicides on homozygous T4 AAD1 (v3) Arabidopsis, % injury 14 DAT; assay type: in vivo, Arabidopsis thaliana; conditions: AAD1.01.315.076.T4 homozygous AAD1 plants
# How it was run: (§4)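 Homozygous T4 AAD1 (v3) Arabidopsis (line AAD1.01.315.076) and a PAT/Cry1F transformed control were grown in pots and track-sprayed foliarly at 187 L/ha with herbicides formulated in 200 mM Hepes pH 7.5. Injury was rated 14 days after treatment, with 3-4 replicates averaged over two experiments.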
# [5] = system: transformed-control line containing PAT and Cry1F; experiment: Foliar-applied auxinic herbicides on control (PAT/Cry1F, wildtype) Arabidopsis, % injury 14 DAT; assay type: in vivo, Arabidopsis thaliana; conditions: PatCry1f - Control
# How it was run: as §4
# [6] = resistant to sensitive biotype, >2 signifies resistance
structure (smiles),measurement,setting,value
CP(=O)(O)CCC(N)C(=O)O (centres unmarked) [glufosinate ammonium],response of non-transformed suspension cells,[1]; 0.5 mg/l,sensitive
same,response of transformed colonies,"[1]; 5 mg/L (5× concentration), up to 4 months",resistant
N#Cc1ccc(Oc2ccc(O)cc2)c(F)c1 [cyhalofop phenol],callus growth relative to control without cyhalofop phenol,[2]; 1 μM,76%
O=C(O)COc1nc(Cl)c(Cl)cc1Cl [Triclopyr],enzyme activity on substrate (HPLC),AAD1 (v1),No enzyme activity was detected
same,IC50,"[3]; AAD1 (v1)-expressing lysate, nominal concentration, read-out: GR50, Chemical + AAD1 v1",1000 nM
same,IC50,"[3]; root length, 7 days, read-out: GR50, Chemical alone",255 nM
same,GR50 ratio,"[3]; enzyme-expressing lysate vs blank vector, ≥ 2 = threshold for activity loss",1
same,wt ARBTH root 150,wt ARBTH; root,0.02 ppm
same,wt ARBTH shoot 150,wt ARBTH; shoot,0.2 ppm
same,root ratio,PAAD1.315.064 ARBTH; [6],1
same,shoot ratio,PAAD1.315.064 ARBTH; [6],0.2
same,resistance afforded by AAD1 (v3) in plate test,PAAD1.315.064 ARBTH; root and shoot assessment,did not effectively protect
same,PAAD1.315.064 ARBTH root 150,"PAAD1.315.064 ARBTH; root, 7 days",0.02 ppm
same,PAAD1.315.064 T3 ARBTH shoot 150,"PAAD1.315.064 ARBTH; shoot, 7 days",0.04 ppm
same,Ave % Injury 14DAT,[4]; 50 g ae/ha foliar,31%
same,Ave % Injury 14DAT,[4]; 200 g ae/ha foliar,58%
same,Ave % Injury 14DAT,[4]; 800 g ae/ha foliar,74%
same,Ave % Injury 14DAT,[4]; 3200 g ae/ha foliar,97%
same,Ave % Injury 14DAT,[5]; 50 g ae/ha foliar,36%
same,Ave % Injury 14DAT,[5]; 200 g ae/ha foliar,65%
same,Ave % Injury 14DAT,[5]; 800 g ae/ha foliar,84%
same,Ave % Injury 14DAT,[5]; 3200 g ae/ha foliar,95%
Oc1ccc(Oc2ncc(C(F)(F)F)cc2Cl)cc1 [haloxyfop phenol],callus growth relative to control lacking haloxyfop phenol,[2]; 300 nM,equal to or greater than the control

# From patent publication US10450549B2, “Aryloxyphenoxypropionate tolerance in turfrgass species and use of AAD1 as a selectable marker” (Dow AgroSciences, LLC, priority 2004, dated 2019)
